Assay results: patent US11497746B2, “Pharmaceutical combinations comprising a histone deacetylase inhibitor and a programmed death-ligand 1 (PD-L1) inhibitor and methods of use thereof” (Acetylon Pharmaceuticals, Inc., priority 2016, dated 2022)

Key:
[1] = system: H929 multiple myeloma cells; assay: PD-L1 expression by flow cytometry in H929 cells; assay type: cell-based; conditions: Compound A 1 μM and 2 μM, 48 hours, flow cytometry (FIG. 1)
Method: After bone marrow aspiration, fresh bone marrow mononuclear cells (MNC) were obtained by ammonium chloride based-lyses of red cells followed by washing in phosphate-buffered saline (PBS). For ADCC assays, cells were immediately incubated with anti-PD-L1 antibody (BMS-936559, also referred to herein as “MDX-1105” 1 μg/mL) in the presence of Compound A or Compound B in complete medium in 96-well plate. The cells were incubated for 72 h at 37° C. in a 5% CO2 environment. The viability of primary MM cells in BM MNC was determined by near infrared (n-IR) viability dyes. The surviving CD138+ MM cells were enumerated in the presence of Flow-Count Fluorospheres (Beckman Coulter, CA, USA), to determine absolute numbers of viable MM cells. Phenotypic analyses of MNC were performed using a single 5-color combination of monoclonal antibodies containing BV421/PD-L1(CD274)-BV711 (BD Biosciences, San Jose, Calif., USA). PD-L1 on plasma cells was determined using a commercial assay (BD Biosciences, San Jose, Calif., USA). After incubation, cells were washed twice in PBS containing 2% BSA, and then re-suspended in PBS for analysis on a Fortessa cytometer (Becton Dickinson, Mountain View, Calif.). MM cell lines were also applied to this method in some experiments. […]

[2] = system: RPMI8226 cells; assay: anti-PD-L1 antibody-dependent cell-mediated cytotoxicity in RPMI8226 cells; assay type: cell-based; conditions: RPMI8226 cells with PBMCs (E/T=15/1), pomalidomide 0.1 μM 72 hours, then anti-PD-L1 antibody 0.5 μg/ml 3 hours, FCM (FIG. 5)
Method: After bone marrow aspiration, fresh bone marrow mononuclear cells (MNC) were obtained by ammonium chloride based-lyses of red cells followed by washing in phosphate-buffered saline (PBS). For ADCC assays, cells were immediately incubated with anti-PD-L1 antibody (BMS-936559, also referred to herein as “MDX-1105” 1 μg/mL) in the presence of Compound A or Compound B in complete medium in 96-well plate. The cells were incubated for 72 h at 37° C. in a 5% CO2 environment. The viability of primary MM cells in BM MNC was determined by near infrared (n-IR) viability dyes. The surviving CD138+ MM cells were enumerated in the presence of Flow-Count Fluorospheres (Beckman Coulter, CA, USA), to determine absolute numbers of viable MM cells. Phenotypic analyses of MNC were performed using a single 5-color combination of monoclonal antibodies containing BV421/PD-L1(CD274)-BV711 (BD Biosciences, San Jose, Calif., USA). PD-L1 on plasma cells was determined using a commercial assay (BD Biosciences, San Jose, Calif., USA). […]
Similarly, RPMI8226 cells were cultured with PBMCs (E/T=15/1) in the presence or absence of pomalidomide (Pom, 0.1 μM) for 72 hours. After subsequent cultivation with anti-PD-L1 antibody (0.5 μg/ml) for 3 hours, percent specific killing was assessed by FCM. […]

[3] = system: U266 cells; assay: anti-PD-L1 antibody-dependent cell-mediated cytotoxicity in U266 cells; assay type: cell-based; conditions: Compound B 1 μM plus stromal cell supernatant 48 hours, then anti-PD-L1 antibody 1 μg/ml and PBMC (E/T=15/1 and 30/1) 5 hours, FCM (FIG. 4)
Method: Multiple myeloma cells were incubated with Calcein-AM (Invitrogen, 2 μg/ml/1 million cells) for 30 min at 37° C. After washing, the cells were used for target cells. Mononuclear cells were obtained from healthy volunteer peripheral blood by Ficoll-Paque density centrifugation and used for effector cells. […] Percent specific lysis was calculated as follows, % specific lysis=[experiment fluorescence−spontaneous fluorescence (no effector)]/[complete lysis (100% killing by detergent)−spontaneous fluorescence (no effector)]×100.
(§1) After bone marrow aspiration, fresh bone marrow mononuclear cells (MNC) were obtained by ammonium chloride based-lyses of red cells followed by washing in phosphate-buffered saline (PBS). For ADCC assays, cells were immediately incubated with anti-PD-L1 antibody (BMS-936559, also referred to herein as “MDX-1105” 1 μg/mL) in the presence of Compound A or Compound B in complete medium in 96-well plate. The cells were incubated for 72 h at 37° C. in a 5% CO2 environment. The viability of primary MM cells in BM MNC was determined by near infrared (n-IR) viability dyes. The surviving CD138+ MM cells were enumerated in the presence of Flow-Count Fluorospheres (Beckman Coulter, CA, USA), to determine absolute numbers of viable MM cells. […] PD-L1 on plasma cells was determined using a commercial assay (BD Biosciences, San Jose, Calif., USA). […]

[4] = system: U266 cells; assay: PD-L1 expression in U266 cells cultured in stromal cell supernatant; assay type: cell-based; conditions: Compound B 1 μM, 48 hours, FCM (FIG. 3)
Method: Mononuclear cells separated by Ficoll-Hypaque density sedimentation from bone marrow aspirates were cultured in 15% FBS-RPMI1640 for 5-6 weeks to establish long-term bone marrow stromal cells. Culture supernatant from BMSCs was used for stimulation of MM cell lines.
as §1
To determine the effect stromal cell priming has on PD-L1 expression in U266 cells treated with Compound B, U266 cells were cultured in stromal cell supernatant (sup) in the presence or absence of Compound B (1 μM) for 48 hours. PD-L1 expression was assessed by FCM. […]

[5] = system: H929 cells; assay: anti-PD-L1 antibody-dependent cell-mediated cytotoxicity in H929 cells; assay type: cell-based; conditions: H929 cells with PBMCs, Compound B alone 0.25, 0.5, 1 μM, 72 h, then anti-PD-L1 antibody 0.5 μg/ml 3 h, FCM (FIG. 7)
Method: After bone marrow aspiration, fresh bone marrow mononuclear cells (MNC) were obtained by ammonium chloride based-lyses of red cells followed by washing in phosphate-buffered saline (PBS). For ADCC assays, cells were immediately incubated with anti-PD-L1 antibody (BMS-936559, also referred to herein as “MDX-1105” 1 μg/mL) in the presence of Compound A or Compound B in complete medium in 96-well plate. The cells were incubated for 72 h at 37° C. in a 5% CO2 environment. The viability of primary MM cells in BM MNC was determined by near infrared (n-IR) viability dyes. […] PD-L1 on plasma cells was determined using a commercial assay (BD Biosciences, San Jose, Calif., USA). […]
To assess the effect of Compound B in combination with pomalidomide on ADCC using anti-PD-L1 antibody-dependent cell-mediated cytotoxicity in H929 cells, H929 cells were stained with carboxyfluorescein succinimidyl ester (CFSE) and cultured with PBMCs in the presence or absence of pomalidomide (0.1 μM), Compound B (0.25, 0.5, 1 μM) for 72 hours. […] Cytotoxicity was assessed by FCM. […]
H929 cells were stained with CFSE and cultured with PBMCs in the presence or absence of pomalidomide (0.1 μM), Compound B (0.25, 0.5, 1 μM) for 72 h. […] Cytotoxicity was assessed by FCM (FIG. 7). […]

[6] = system: Mononuclear cells from MM patients' bone marrow aspirates; assay: anti-PD-L1 antibody induced cytotoxicity, autologous setting, ex vivo; assay type: cell-based, human; conditions: anti-PD-L1 Ab 0.5 μg/ml, Compound B 0.5 μM, 72 h (FIG. 8 and FIG. 9)
Method: After bone marrow aspiration, fresh bone marrow mononuclear cells (MNC) were obtained by ammonium chloride based-lyses of red cells followed by washing in phosphate-buffered saline (PBS). […] The cells were incubated for 72 h at 37° C. in a 5% CO2 environment. The viability of primary MM cells in BM MNC was determined by near infrared (n-IR) viability dyes. The surviving CD138+ MM cells were enumerated in the presence of Flow-Count Fluorospheres (Beckman Coulter, CA, USA), to determine absolute numbers of viable MM cells. Phenotypic analyses of MNC were performed using a single 5-color combination of monoclonal antibodies containing BV421/PD-L1(CD274)-BV711 (BD Biosciences, San Jose, Calif., USA). PD-L1 on plasma cells was determined using a commercial assay (BD Biosciences, San Jose, Calif., USA). After incubation, cells were washed twice in PBS containing 2% BSA, and then re-suspended in PBS for analysis on a Fortessa cytometer (Becton Dickinson, Mountain View, Calif.). MM cell lines were also applied to this method in some experiments.
H929 cells were stained with CFSE and cultured with PBMCs in the presence or absence of pomalidomide (0.1 μM), Compound B (0.25, 0.5, 1 μM) for 72 h. The cells were then incubated with Ab (0.5 μg/ml PD-L1) for 3 h. Cytotoxicity was assessed by FCM (FIG. 7). […]

[7] = system: MM.1S, H929, KMS12-PE, OPM1 and U266 multiple myeloma cells; assay: PD-L1 expression in a panel of multiple myeloma cell lines; assay type: cell-based; conditions: 2 μM, 48 hours (FIG. 2)
Method: After bone marrow aspiration, fresh bone marrow mononuclear cells (MNC) were obtained by ammonium chloride based-lyses of red cells followed by washing in phosphate-buffered saline (PBS). For ADCC assays, cells were immediately incubated with anti-PD-L1 antibody (BMS-936559, also referred to herein as “MDX-1105” 1 μg/mL) in the presence of Compound A or Compound B in complete medium in 96-well plate. […] The viability of primary MM cells in BM MNC was determined by near infrared (n-IR) viability dyes. The surviving CD138+ MM cells were enumerated in the presence of Flow-Count Fluorospheres (Beckman Coulter, CA, USA), to determine absolute numbers of viable MM cells. Phenotypic analyses of MNC were performed using a single 5-color combination of monoclonal antibodies containing BV421/PD-L1(CD274)-BV711 (BD Biosciences, San Jose, Calif., USA). PD-L1 on plasma cells was determined using a commercial assay (BD Biosciences, San Jose, Calif., USA). After incubation, cells were washed twice in PBS containing 2% BSA, and then re-suspended in PBS for analysis on a Fortessa cytometer (Becton Dickinson, Mountain View, Calif.). MM cell lines were also applied to this method in some experiments.

With O=C(CCCCCCNC(=O)c1cnc(N(c2ccccc2)c2ccccc2)nc1)NO [Compound A, 2-(diphenylamino)-N-(7-(hydroxyamino)-7-oxoheptyl)pyrimidine-5-carboxamide] as the compound, how does the PD-L1 expression [1] read?
Its PD-L1 expression is “increased”.

For Nc1cccc2c1C(=O)N(C1CCC(=O)NC1=O)C2=O (stereo not shown) [Pomalidomide, pomalidomide], which “percent specific killing (cytotoxicity)” value [2] is on record?
Its value is “enhanced”.

With O=C(CCCCCCNC(=O)c1cnc(N(c2ccccc2)c2ccccc2Cl)nc1)NO [Compound B, 2-((2-chlorophenyl)(phenyl)amino)-N-(7-(hydroxyamino)-7-oxoheptyl)pyrimidine-5-carboxamide] as the compound, how does the percent specific lysis [3] read?
Its percent specific lysis is “greatest”.

What about the PD-L1 expression [4] of the same compound?
Its PD-L1 expression is “highest”.

What about the “anti-PD-L1 Ab-induced cytotoxicity” value [5] of the same compound?
Its value is “enhanced”.

What about the anti-PD-L1 antibody induced-cytotoxicity [6] of the same compound?
Its anti-PD-L1 antibody induced-cytotoxicity is “enhanced”.

What about the PD-L1 expression [7] of the same compound?
The PD-L1 expression was “enhanced”.
